Tests used:
[1] = system: rat; settings: dosed: benzo[a]pyrene, 1 mg/kg, iv, male, Sprague Dawley
[2] = system: rat; assay: concentration in serum after dosing; settings: dosed: benzo[a]pyrene, 20 mg/kg, oral, male, Wistar
[3] = system: rat; settings: dosed: benzo[a]pyrene, 1 mg/kg, iv, male, Sprague Dawley; remark: listed apart in the source
[4] = system: Rat; assay: concentration in blood after dosing; settings: dosed: Naphthalene, 1 mg/kg, iv, Male, F344
[5] = system: Rat; assay: concentration in blood after dosing; settings: dosed: Naphthalene, iv, F344
[6] = system: Rat; assay: concentration in blood after dosing; settings: dosed: Naphthalene, 1 mg/kg, iv, Female, F344
[7] = system: Rat; assay: concentration in blood after dosing; settings: dosed: Naphthalene, 3 mg/kg, iv, Male, F344
[8] = system: Rat; assay: concentration in blood after dosing; settings: dosed: Naphthalene, 1 mg/kg, iv, Female, F344; remark: listed apart in the source
[9] = system: Rat; assay: concentration in blood after dosing; settings: dosed: Naphthalene, 1 mg/kg, iv, Male, F344; remark: listed apart in the source
[10] = system: Rat; assay: concentration in blood after dosing; settings: dosed: Naphthalene, 3 mg/kg, iv, Female, F344
[11] = system: Rat; assay: concentration in blood after dosing; settings: dosed: Naphthalene, 10 mg/kg, iv, Male, F344
[12] = system: Rat; assay: concentration in blood after dosing; settings: dosed: Naphthalene, 3 mg/kg, iv, Male, F344; remark: listed apart in the source
[13] = system: Rat; assay: concentration in blood after dosing; settings: dosed: Naphthalene, 10 mg/kg, iv, Male, F344; remark: listed apart in the source

Oc1ccc2ccc3c4ccccc4cc4ccc1c2c43 [3-hydroxybenzo[a]pyrene]
Settings | amount in feces after dosing [ng] | amount in urine after dosing [ng] | concentration in serum [ng/mL]
[1], 10.02 h | – | 46.8 | –
[1], 23.97 h | – | 166 | –
[1], 47.95 h | – | 220 | –
[1], 71.92 h | – | 269 | –
[1], 95.9 h | – | 310 | –
[1], 119.75 h | – | 346 | –
[2], 1.009 h | – | – | 1.32
[2], 2.018 h | – | – | 1.26
[2], 3.995 h | – | – | 5.22
[2], 6.005 h | – | – | 4.15
[2], 7.982 h | – | – | 2.24
[2], 9.992 h | – | – | 1.6
[3], 10.07 h | 4790 | – | –
[3], 24.05 h | 16900 | – | –
[3], 48.1 h | 22700 | – | –
[3], 72.03 h | 23700 | – | –
[3], 96.08 h | 24500 | – | –
[3], 120 h | 24900 | – | –

c1ccc2ccccc2c1 [Naphthalene]
concentration in blood [ng/mL]
Settings | 1 h | 2 h | 2 min | 4 h | 5 min | 6 h | 8 h | 10 min | 20 min | 40 min
[4] | 30.5 | – | 1300 | – | 625 | – | – | 340 | 82.5 | 46.6
[6] | – | – | 21.4 | – | 51.6 | 23.6 | – | – | 20.5 | –
[7] | 133 | 52.1 | 6890 | 19.3 | 4770 | – | – | 2440 | 736 | 255
[8] | 21.2 | – | 1740 | – | 548 | – | – | 204 | 29.3 | 34.3
[9] | 36.2 | – | 1390 | – | 701 | – | – | 312 | 127 | 54.8
[10] | 103 | 47 | 2870 | 26.7 | 1900 | 27.7 | 24.2 | 942 | 468 | 151
[11] | 407 | 172 | – | 76.7 | 8050 | 38.2 | – | 4930 | 2640 | 839
[12] | 169 | 82.8 | – | – | 2000 | – | – | 3690 | 1240 | 306
[13] | 487 | 172 | – | 90.2 | 8740 | 47.3 | 33.3 | 4000 | 2610 | 661

concentration in blood [ng/mL], [5]
Settings | 1 mg/kg | 3 mg/kg | 10 mg/kg
1 h, Female | – | 80 | –
1 h, Male | 34.8 | 172 | 446
2 h, Female | – | 35.1 | –
2 h, Male | – | 233 | 214
2 min, Female | 1330 | 2780 | –
2 min, Male | 3260 | 260 | –
4 h, Male | – | 87.1 | 90
5 min, Female | 770 | 1480 | –
5 min, Male | 677 | 152 | 11200
6 h, Male | – | 90.9 | 58.5
8 h, Male | – | 20.6 | 38.1
10 min, Female | 407 | 1380 | –
10 min, Male | 315 | 215 | 6220
12 h, Male | – | – | 21.5
20 min, Female | 120 | 375 | –
20 min, Male | 107 | 185 | 2850
40 min, Female | 43 | 125 | –
40 min, Male | – | 173 | 860
